The test concerns the target T1, PD-1-Ig binding to PD-L1-TVMV-His (PD-L1-His) (Homo sapiens, UniProt Q9NZQ7).
T1 construct: hPDL1(19-239)-TVMV-His; made in house; host or cells: HEK293T cells
Description: PD-1/PD-L1 Homogenous Time-Resolved Fluorescence (HTRF) binding assay. Particulars: PD-1-Ig (20 nM) / PD-L1-His (10 nM); range classes. From the text: The ability of the macrocyclic peptides of the present disclosure to bind to PD-L1 was investigated using a PD-1/PD-L1 Homogenous Time-Resolved Fluorescence (HTRF) binding assay.
Homogenous Time-Resolved Fluorescence (HTRF) Assays of Binding of Soluble PD-1 to Soluble PD-L1. Soluble PD-1 and soluble PD-L1 refers to proteins with carboxyl-end truncations that remove the transmembrane-spanning regions and are fused to heterologous sequences, specifically the Fc portion of the human immunoglobuling G sequence (Ig) or the hexahistidine epitope tag (His). All binding studies were performed in an HTRF assay buffer consisting of dPBS supplemented with 0.1% (w/v) bovine serum albumin and 0.05% (v/v) Tween-20. For the PD-1-Ig/PD-L1-His binding assay, inhibitors were pre-incubated with PD-L1-His (10 nM final) for 15 m in 4 μl of assay buffer, followed by addition of PD-1-Ig (20 nM final) in 1 μl of assay buffer and further incubation for 15 m. PD-L1 fusion proteins from either human, cynomologous macaques, mouse, or other species were used. HTRF detection was achieved using europium crypate-labeled anti-Ig monoclonal antibody (1 nM final) and allophycocyanin (APC) labeled anti-His monoclonal antibody (20 nM final). Antibodies were diluted in HTRF detection buffer and 5 μl was dispensed on top of binding reaction. […] Additional binding assays were established between PD-1-Ig/PD-L2-His (20 and 5 nM, respectively), CD80-His/PD-L1-Ig (100 and 10 nM, respectively) and CD80-His/CTLA4-Ig (10 and 5 nM, respectively).
Recombinant Proteins. […] Human PD-L2-His (Sino Biologicals), CD80-His (Sino Biologicals), CTLA4-Ig (RnD Systems) were all obtained through commercial sources.
For orientation: Time-resolved FRET reads energy transfer from a long-lived donor to a nearby acceptor.

The results in this text go back to patent US9732119B2, “Immunomodulators” (BRISTOL-MYERS SQUIBB COMPANY, priority 2014, dated 2017).

T1 sequence (Q9NZQ7 with tags, fused parts or gaps): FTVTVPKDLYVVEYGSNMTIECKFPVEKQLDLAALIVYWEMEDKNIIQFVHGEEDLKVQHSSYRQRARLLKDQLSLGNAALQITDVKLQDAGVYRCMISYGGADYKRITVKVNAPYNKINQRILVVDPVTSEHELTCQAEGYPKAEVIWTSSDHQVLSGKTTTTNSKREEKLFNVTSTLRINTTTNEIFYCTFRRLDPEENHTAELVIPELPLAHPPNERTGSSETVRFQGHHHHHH

Turning to `CCCC[C@H]1C(=O)N(C)[C@@H](CCCC)C(=O)NC(CC(C)C)C(=O)N[C@H](C(=O)NCC(N)=O)CNCC(=O)N[C@@H](Cc2ccc(O)cc2)C(=O)N(C)[C@@H](C)C(=O)N[C@@H](CC(N)=O)C(=O)N2CCC[C@H]2C(=O)N[C@@H](CN)C(=O)N[C@@H](CC(C)C)C(=O)N2C[C@H](O)C[C@H]2C(=O)N[C@@H](Cc2c[nH]c3ccccc23)C(=O)N[C@@H](CCN)C(=O)N[C@@H](Cc2c[nH]c3ccccc23)C(=O)N1C` (stereo partly shown) [Example 1029], the IC50 lay within 10 to 99 nM. To `CCCC[C@H]1C(=O)N(C)[C@@H](CCCC)C(=O)NC(CC(C)C)C(=O)N[C@H](C(=O)NCC(N)=O)CNCC(=O)N[C@@H](Cc2ccc(O)cc2)C(=O)N(C)[C@@H](C)C(=O)N[C@@H](CC(N)=O)C(=O)N2CCC[C@H]2C(=O)N[C@@H](CN)C(=O)N[C@@H](CC(C)C)C(=O)N2C[C@H](O)C[C@H]2C(=O)N[C@@H](Cc2c[nH]c3ccccc23)C(=O)N[C@@H](CCN)C(=O)N[C@@H](Cc2cn(CC(=O)O)c3ccccc23)C(=O)N1C` (stereo partly shown) [Example 1030] belongs 1 to 9.9 nM. Compound `CCCC[C@H]1C(=O)N(C)[C@@H](CCCC)C(=O)NC(CC(C)C)C(=O)N[C@H](C(=O)NCC(N)=O)CNCC(=O)N[C@@H](Cc2ccc(O)cc2)C(=O)N(C)[C@@H](C)C(=O)N[C@@H](CC(N)=O)C(=O)N2CCC[C@H]2C(=O)N[C@@H](CN)C(=O)N[C@@H](CCC(=O)O)C(=O)N2C[C@H](O)C[C@H]2C(=O)N[C@@H](Cc2c[nH]c3ccccc23)C(=O)N[C@@H](CCN)C(=O)N[C@@H](Cc2cn(CC(=O)O)c3ccccc23)C(=O)N1C` (stereo partly shown) [Example 1031] came in with an IC50 of 1 to 9.9 nM. The result for `CCCC[C@H]1C(=O)N(C)[C@@H](CCCC)C(=O)NC(CC(C)C)C(=O)N[C@H](C(=O)NCC(N)=O)CNCC(=O)N[C@@H](Cc2ccc(O)cc2)C(=O)N(C)[C@@H](C)C(=O)N[C@@H](CC(N)=O)C(=O)N2CCC[C@H]2C(=O)N[C@@H](CN)C(=O)N[C@@H](CC(C)C)C(=O)N2C[C@H](O)C[C@H]2C(=O)N[C@@H](Cc2c[nH]c3ccccc23)C(=O)N[C@@H](CCCCN)C(=O)N[C@@H](Cc2cn(CC(=O)O)c3ccccc23)C(=O)N1C` (stereo partly shown) [Example 1032] reads 1 to 9.9 nM. Turning to `CCCC[C@H]1C(=O)N(C)[C@@H](CCCC)C(=O)NC(CC(C)C)C(=O)N[C@H](C(N)=O)CNCC(=O)N[C@@H](Cc2ccc(O)cc2)C(=O)N(C)[C@@H](C)C(=O)N[C@@H](CC(N)=O)C(=O)N2CCC[C@H]2C(=O)N[C@@H](CN)C(=O)N[C@@H](CC(C)C)C(=O)N2C[C@H](O)C[C@H]2C(=O)N[C@@H](Cc2c[nH]c3ccccc23)C(=O)N[C@@H](CCCCN)C(=O)N[C@@H](Cc2cn(CC(=O)O)c3ccccc23)C(=O)N1C` (stereo partly shown) [Example 1033], the IC50 was 10 to 99 nM.

Compound `CCCC[C@H]1C(=O)N(C)[C@@H](CCCC)C(=O)NC(CC(C)C)C(=O)N[C@H](C(N)=O)CNCC(=O)N[C@@H](Cc2ccc(O)cc2)C(=O)N(C)[C@@H](C)C(=O)N[C@@H](CC(N)=O)C(=O)N2CCC[C@H]2C(=O)N[C@@H](CN)C(=O)N[C@@H](CC(C)C)C(=O)N2C[C@H](O)C[C@H]2C(=O)N[C@@H](Cc2c[nH]c3ccccc23)C(=O)N[C@@H](CCN)C(=O)N[C@@H](Cc2cn(CC(=O)O)c3ccccc23)C(=O)N1C` (stereo partly shown) [Example 1034] had an IC50 of 1 to 9.9 nM.

Regarding `CCCC[C@H]1C(=O)N(C)[C@@H](CCCC)C(=O)NC(CC(C)C)C(=O)N[C@H](C(N)=O)CNCC(=O)N[C@@H](Cc2ccc(O)cc2)C(=O)N(C)[C@@H](C)C(=O)N[C@@H](CC(N)=O)C(=O)N2CCC[C@H]2C(=O)N[C@@H](CN)C(=O)N[C@@H](CCC(=O)O)C(=O)N2C[C@H](O)C[C@H]2C(=O)N[C@@H](Cc2c[nH]c3ccccc23)C(=O)N[C@@H](CCN)C(=O)N[C@@H](Cc2cn(CC(=O)O)c3ccccc23)C(=O)N1C` (stereo partly shown) [Example 1035], the IC50 was in the range of 1 to 9.9 nM.

In general, IC50 refers to the midpoint of a concentration-inhibition curve.
